Format in all cases: cell-based
One experiment deals with Citrobacter diversus. The experiment is described as follows: MIC against Gram-negative bacteria: Citrobacter diversus. The settings on record: 5×10^5 CFU/mL; for MIC C. diversus: 10 h cultivation at 37° C., two-fold serial dilution. An outline of the steps: (§1)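 Broth microdilution, LB medium, final inoculum 5×10^5 CFU/mL from McFarland 0.5 cultures. Recombinant human EGF domain proteins tested in two-fold steps, n=3. MIC: lowest concentration, no growth.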

Another experiment deals with Serratia marcescens. Nature of the experiment: MIC against Gram-negative bacteria: Serratia marcescens. The settings on record: 5×10^5 CFU/mL; for MIC S. marcescens: 10 h cultivation at 37° C., two-fold serial dilution. An outline of the steps:
as §1

The test system of the next experiment is Klebsiella pneumonia. The experiment is described as follows: MIC against Gram-negative bacteria: Klebsiella pneumonia. The settings on record: 5×10^5 CFU/mL; for MIC K. pneumonia: 10 h cultivation at 37° C., two-fold serial dilution. A digest of the protocol: as §1
For the next experiment, the system named is Aeromonas hydrophila. Nature of the experiment: MIC against Gram-negative bacteria: Aeromonas hydrophila. The settings on record: 5×10^5 CFU/mL; for MIC A. hydrophila: 10 h cultivation at 37° C., two-fold serial dilution. An outline of the steps: as §1
For another experiment, the system named is E. coli DH5α. Nature of the experiment: Antibacterial activity: MIC and growth curve against E. coli DH5α in 96-well plate. Conditions: minimal inhibitory concentration against E. coli DH5α; 96-well plate, 5×10^5 CFU/mL, 37° C., judged after 8 h. An outline of the steps:
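Log-phase bacteria (OD600 ~0.5) resuspended in LB at 5×10^5 CFU/mL, exposed to recombinant protein at 50, 25, 12.5 μg/mL final in triplicate, 37 °C shaking at 175 rpm. OD600 read every 30 min; MIC is lowest concentration showing no growth.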

The next experiment has as its system Proteus vulgaris. Nature of the experiment: MIC against Gram-negative bacteria: Proteus vulgaris. Conditions: 5×10^5 CFU/mL; for MIC P. vulgaris: 10 h cultivation at 37° C., two-fold serial dilution. A digest of the protocol: as §1
The next experiment concerns Proteus mirabilis. The experiment is described as follows: MIC against Gram-negative bacteria: Proteus mirabilis. The settings on record: 5×10^5 CFU/mL; for MIC P. mirabilis: 10 h cultivation at 37° C., two-fold serial dilution. An outline of the steps:
as §1

The test system of a further experiment is Pseudomonas aeruginosa. The experiment is described as follows: MIC against Gram-negative bacteria: Pseudomonas aeruginosa. Conditions: 5×10^5 CFU/mL; for MIC P. aeruginosa: 10 h cultivation at 37° C., two-fold serial dilution. A digest of the protocol:
as §1

The next experiment relates to Enterobacter cloacae. Nature of the experiment: MIC against Gram-negative bacteria: Enterobacter cloacae. Conditions: 5×10^5 CFU/mL; for MIC E. cloacae: 10 h cultivation at 37° C., two-fold serial dilution. A digest of the protocol:
as §1

Another experiment has as its system Moraxella catarrhalis. Nature of the experiment: MIC against Gram-negative bacteria: Moraxella catarrhalis. Conditions: 5×10^5 CFU/mL; for MIC M. catarrhalis: 10 h cultivation at 37° C., two-fold serial dilution. A digest of the protocol:
as §1

The subject of another experiment is E. coli BL21. Nature of the experiment: MIC against Gram-negative bacteria: E. coli BL21. The settings on record: 5×10^5 CFU/mL; for MIC E. coli BL21: 10 h cultivation at 37° C., two-fold serial dilution. An outline of the steps: as §1

As a reminder, the MIC is the smallest concentration in the dilution series that meets the test's criterion for growth inhibition. Read a high MIC as a less susceptible organism. Regarding “PRT450 (KCLCPLGFLLANDSKTCEDIDE; listed as Homo sapiens)”, in the experiment with Citrobacter diversus (96-well plate, 37° C., 10 h), the “MIC against C. diversus” value turned out to be 12.5 µg/mL. Moreover, the “MIC against S. marcescens” value with Serratia marcescens (96-well plate, 37° C., 10 h) was 12.5 µg/mL. For the same substance, in the experiment with Klebsiella pneumonia (96-well plate, 37° C., 10 h), the “MIC against K. pneumonia” value was determined as 50 µg/mL. The “MIC against A. hydrophila” value with Aeromonas hydrophila (96-well plate, 37° C., 10 h) was found to be 50 µg/mL. Further, the MIC against E. coli DH5α turned out to be 12.5 µg/mL. In addition, in the experiment on Proteus vulgaris (96-well plate, 37° C., 10 h), the “MIC against P. vulgaris” value came to 50 µg/mL. Moreover, the “MIC against P. mirabilis” value in the experiment on Proteus mirabilis (96-well plate, 37° C., 10 h) was determined as 12.5 µg/mL. The “MIC against P. aeruginosa” value in the experiment on Pseudomonas aeruginosa (96-well plate, 37° C., 10 h) is 12.5 µg/mL. The “MIC against E. cloacae” value in the experiment on Enterobacter cloacae (96-well plate, 37° C., 10 h) is 12.5 µg/mL. The “MIC against M. catarrhalis” value with Moraxella catarrhalis (96-well plate, 37° C., 10 h) came to 50 µg/mL. Also, in the experiment on E. coli BL21 (96-well plate, 37° C., 10 h), the “MIC against E. coli BL21” value was 12.5 µg/mL.
On to “PRT1103 (DHDECASSPCQNGAVCQDGIDGYSCFCVPGYQGRHCD; listed as Homo sapiens)”, for which, in the experiment with Citrobacter diversus, the “MIC C. diversus” value was found to be 12.5 µg/mL. In addition, the “MIC S. marcescens” value against Serratia marcescens was found to be 12.5 µg/mL. Further, in the experiment on Klebsiella pneumonia, the “MIC K. pneumonia” value was 25 µg/mL. Besides, the “MIC A. hydrophila” value with Aeromonas hydrophila came out at 25 µg/mL. The minimum inhibitory concentration (MIC) in the experiment with E. coli DH5α is 12.5 µg/mL. In the experiment on Proteus vulgaris, the “MIC P. vulgaris” value is 25 µg/mL. The “MIC P. mirabilis” value in the experiment on Proteus mirabilis came to 50 µg/mL. Moreover, the “MIC P. aeruginosa” value against Pseudomonas aeruginosa was 12.5 µg/mL. Also, the “MIC E. cloacae” value in the experiment on Enterobacter cloacae turned out to be 50 µg/mL. Further, the “MIC M. catarrhalis” value with Moraxella catarrhalis worked out at 25 µg/mL. In the experiment with E. coli BL21, the “MIC E. coli BL21” value is 25 µg/mL.
On to “PRT100 (DVNECTSGQNPCHSSTHCLNNVGSYQCRCRPGWQPIPGSPNGPNNTVCE; listed as Homo sapiens)”, for which the “MIC (μg/mL) C. diversus” value in the experiment on Citrobacter diversus (Citrobacter diversus, 96-well plate, 37° C., 10 h) was 12.5 µg/mL. Moreover, the “MIC (μg/mL) S. marcescens” value against Serratia marcescens (Serratia marcescens, 96-well plate, 37° C., 10 h) stood at 12.5 µg/mL. For the same substance, the “MIC (μg/mL) K. pneumonia” value in the experiment on Klebsiella pneumonia (Klebsiella pneumonia, 96-well plate, 37° C., 10 h) amounted to 12.5 µg/mL. Moreover, the “MIC (μg/mL) A. hydrophila” value in the experiment with Aeromonas hydrophila (Aeromonas hydrophila, 96-well plate, 37° C., 10 h) was 12.5 µg/mL. Further, in the experiment with E. coli DH5α, the MIC is 12.5 µg/mL. In addition, in the experiment on Proteus vulgaris (Proteus vulgaris, 96-well plate, 37° C., 10 h), the “MIC (μg/mL) P. vulgaris” value is 25 µg/mL. In addition, the “MIC (μg/mL) P. mirabilis” value against Proteus mirabilis (Proteus mirabilis, 96-well plate, 37° C., 10 h) came out at 12.5 µg/mL. Besides, the “MIC (μg/mL) P. aeruginosa” value against Pseudomonas aeruginosa (Pseudomonas aeruginosa, 96-well plate, 37° C., 10 h) came out at 12.5 µg/mL. Moreover, in the experiment on Enterobacter cloacae (Enterobacter cloacae, 96-well plate, 37° C., 10 h), the “MIC (μg/mL) E. cloacae” value amounted to 12.5 µg/mL. Besides, the “MIC (μg/mL) M. catarrhalis” value in the experiment with Moraxella catarrhalis (Moraxella catarrhalis, 96-well plate, 37° C., 10 h) was 12.5 µg/mL. The “MIC (μg/mL) E. coli BL21” value in the experiment on E. coli BL21 (E. coli BL21, 96-well plate, 37° C., 10 h) worked out at 12.5 µg/mL.
Consider “PRT1168 (NINDCSQNPCHNGGTCRDLVNDFYCDCKNGWKGKTCH; listed as Homo sapiens)”, for which the “MIC C. diversus” value against Citrobacter diversus is 12.5 µg/mL. Moreover, the “MIC S. marcescens” value in the experiment with Serratia marcescens was determined as 12.5 µg/mL. In addition, in the experiment on Klebsiella pneumonia, the “MIC K. pneumonia” value was 50 µg/mL. The “MIC A. hydrophila” value against Aeromonas hydrophila was 50 µg/mL. Also, the MIC with E. coli DH5α turned out to be 25 µg/mL. Also, the “MIC P. vulgaris” value in the experiment with Proteus vulgaris was 50 µg/mL. The “MIC P. mirabilis” value against Proteus mirabilis turned out to be 12.5 µg/mL. Moreover, the “MIC P. aeruginosa” value against Pseudomonas aeruginosa came out at 25 µg/mL. Further, the “MIC E. cloacae” value against Enterobacter cloacae turned out to be 12.5 µg/mL. For the same substance, the “MIC M. catarrhalis” value in the experiment with Moraxella catarrhalis came out at 50 µg/mL. For the same substance, the “MIC E. coli BL21” value with E. coli BL21 came to 12.5 µg/mL.
As to “PRT1062 (LQGNCSRLGCQHHCVPTLDGPTCYCNSSFQLQADGKTCK; listed as Homo sapiens)”, the “MIC C. diversus” value in the experiment on Citrobacter diversus was determined as 50 µg/mL. Besides, the “MIC S. marcescens” value against Serratia marcescens came to 50 µg/mL. In the experiment on Klebsiella pneumonia, the “MIC K. pneumonia” value stood at 12.5 µg/mL. Moreover, the “MIC A. hydrophila” value in the experiment on Aeromonas hydrophila amounted to 25 µg/mL. Further, the MIC against E. coli DH5α was determined as 25 µg/mL. The “MIC P. vulgaris” value in the experiment with Proteus vulgaris came to 25 µg/mL. Moreover, in the experiment on Proteus mirabilis, the “MIC P. mirabilis” value was 12.5 µg/mL. The “MIC P. aeruginosa” value in the experiment with Pseudomonas aeruginosa came to 25 µg/mL. Also, the “MIC E. cloacae” value with Enterobacter cloacae was found to be 25 µg/mL. Also, the “MIC M. catarrhalis” value in the experiment on Moraxella catarrhalis turned out to be 25 µg/mL. Moreover, the “MIC E. coli BL21” value in the experiment on E. coli BL21 turned out to be 50 µg/mL.
